{"source": "patent US5807535A", "about": "“Metal complexes of hydroxyaryl containing aminocarboxylic acid chelating agents” (Australian Nuclear Science & Technology Organisation, priority 1992, dated 1998)", "key": {"[1]": {"assay": "Serum stability of 99mTc complex of (1)", "format": "in vitro ADME", "details": "first hour at 37° C., read-out: technetium lost from the chelator in serum", "description": "A typical method of radiolabelling of the chelator was achieved by dissolving the chelator in a basic solution of saline. The pH was then adjusted to approx. 6 with HCl. Excess stannous chloride was added to the resultant solution followed by one equivalent volume of sodium ^99m TcO4 (10-50 mCi/ml). Final concentration of the chelator was approx. 1 mg/ml. The efficacy of labelling was determined by ITLC-SG. For each product only one main radiochemical species was observed. Each complex was diluted to 15 μCi/100 μl with saline. […] (See FIGS. 1A and 1B)."}, "[2]": {"assay": "Serum stability of Copper-67 complexes", "format": "in vitro ADME", "description": "The serum stability was determined for selected derivatives and typical procedure is as follows.\nThe ligand (1) was labelled with Cu-67 at a ligand:metal ratio of 4:1."}, "[3]": {"assay": "Radiolabelling of chelators with 64Cu and 67Cu", "format": "physicochemical", "details": "ligand:metal ratio 4:1, ITLC", "description": "(§1) A typical procedure involved the dissolving Cu-67 20 μl of original stock in an acetate buffer (0.2 M; pH 4.5) to a total volume of 500 μl. To this solution was added 500 μl of the ligand (20 mg/ml) solution in acetate buffer. The mixture was then left to react at 37° C. for 20 minutes. ITLC confirmed the labelling was greater than >95%."}, "[4]": {"assay": "Complexation of (1) with 166Dy and 166Ho", "format": "physicochemical", "details": "166Dy/166Ho, within 40 mins at RT", "description": "Radiolabelling with of (1) with ^166 Dy and ^166 Ho and the serum stability of the complex formed has been investigated. A typical procedure involves dissolving (1) (2.6 10^-4 M) in 1.0 M NaOH (150 μl) and then adding saline (669 μl). Then equal volume of ligand mixture and the ^166 Dy/^166 Ho in 0.2 M NaAc (pH to 4.5) are mixed. The complexation is monitored by ITLC-SG."}, "[5]": {"assay": "Biodistribution of Copper-67 complex of (5)", "format": "in vivo, Balb/c mice", "details": "for biodistribution L. Int. / biodistribution S. Int. / biodistribution blood / biodistribution bone / biodistribution brain / biodistribution heart / biodistribution kidney / biodistribution liver / biodistribution lung / biodistribution muscle / biodistribution pancreas / biodistribution skin / biodistribution spleen / biodistribution stomach / biodistribution tail / biodistribution urine: 67Cu, mice", "description": "as §1\nThe biodistribution of the copper-67 complex of ligand (5) was evaluated in balb/c mice (5 animals per time point) at 1, 3, 5, 10, 30 minute time intervals."}, "[6]": {"details": "Cu-67, over the 30 minute period"}}, "data": [{"smiles": "O=C(O)CN(CCN(CC(=O)O)CC(=O)Nc1ccccc1O)CC(=O)Nc1ccccc1O", "note": "[Compound 1]", "values": [{"measurement": "degraded at 1 h", "setting": "[1]", "value": "≤ 15", "unit": "%"}, {"measurement": "further loss in serum", "setting": "[2]; Cu-67, after 24 hours", "value": "no further loss"}, {"measurement": "degraded at 4 h", "setting": "[2]; serum, Cu-67, initial 4 hours, read-out: loss in serum", "value": 4, "unit": "%"}, {"measurement": "efficiency of labelling with Cu-67", "setting": "[3]", "value": "> 95", "unit": "%"}, {"measurement": "complexation", "setting": "[4]", "value": "> 99", "unit": "%"}]}, {"smiles": "Nc1ccc(O)c(NC(=O)CN(CCN(CC(=O)O)CC(=O)Nc2cc(N)ccc2O)CC(=O)O)c1", "note": "[Compound 5]", "values": [{"measurement": "biodistribution L. Int.", "setting": "[5]; 1 min", "value": 0.35, "unit": "% Injected dose"}, {"measurement": "biodistribution S. Int.", "setting": "[5]; 1 min", "value": 0.50, "unit": "% Injected dose"}, {"measurement": "biodistribution blood", "setting": "[5]; 1 min", "value": 5.86, "unit": "% Injected dose"}, {"measurement": "biodistribution bone", "setting": "[5]; 1 min", "value": 5.46, "unit": "% Injected dose"}, {"measurement": "biodistribution brain", "setting": "[5]; 1 min", "value": 0.23, "unit": "% Injected dose"}, {"measurement": "biodistribution heart", "setting": "[5]; 1 min", "value": 0.27, "unit": "% Injected dose"}, {"measurement": "biodistribution kidney", "setting": "[5]; 1 min", "value": 8.35, "unit": "% Injected dose"}, {"measurement": "biodistribution liver", "setting": "[5]; 1 min", "value": 5.71, "unit": "% Injected dose"}, {"measurement": "biodistribution lung", "setting": "[5]; 1 min", "value": 0.85, "unit": "% Injected dose"}, {"measurement": "biodistribution muscle", "setting": "[5]; 1 min", "value": 13.69, "unit": "% Injected dose"}, {"measurement": "biodistribution pancreas", "setting": "[5]; 1 min", "value": 0.20, "unit": "% Injected dose"}, {"measurement": "biodistribution skin", "setting": "[5]; 1 min", "value": 9.61, "unit": "% Injected dose"}, {"measurement": "biodistribution spleen", "setting": "[5]; 1 min", "value": 0.18, "unit": "% Injected dose"}, {"measurement": "biodistribution stomach", "setting": "[5]; 1 min", "value": 0.52, "unit": "% Injected dose"}, {"measurement": "biodistribution tail", "setting": "[5]; 1 min", "value": 8.27, "unit": "% Injected dose"}, {"measurement": "biodistribution urine", "setting": "[5]; 1 min", "value": 0.35, "unit": "% Injected dose"}, {"measurement": "biodistribution L. Int.", "setting": "[5]; 3 min", "value": 0.75, "unit": "% Injected dose"}, {"measurement": "biodistribution S. Int.", "setting": "[5]; 3 min", "value": 1.10, "unit": "% Injected dose"}, {"measurement": "biodistribution blood", "setting": "[5]; 3 min", "value": 4.76, "unit": "% Injected dose"}, {"measurement": "biodistribution bone", "setting": "[5]; 3 min", "value": 3.35, "unit": "% Injected dose"}, {"measurement": "biodistribution brain", "setting": "[5]; 3 min", "value": 0.22, "unit": "% Injected dose"}, {"measurement": "biodistribution heart", "setting": "[5]; 3 min", "value": 0.28, "unit": "% Injected dose"}, {"measurement": "biodistribution kidney", "setting": "[5]; 3 min", "value": 5.65, "unit": "% Injected dose"}, {"measurement": "biodistribution liver", "setting": "[5]; 3 min", "value": 8.48, "unit": "% Injected dose"}, {"measurement": "biodistribution lung", "setting": "[5]; 3 min", "value": 1.20, "unit": "% Injected dose"}, {"measurement": "biodistribution muscle", "setting": "[5]; 3 min", "value": 18.00, "unit": "% Injected dose"}, {"measurement": "biodistribution pancreas", "setting": "[5]; 3 min", "value": 0.11, "unit": "% Injected dose"}, {"measurement": "biodistribution skin", "setting": "[5]; 3 min", "value": 19.21, "unit": "% Injected dose"}, {"measurement": "biodistribution spleen", "setting": "[5]; 3 min", "value": 0.19, "unit": "% Injected dose"}, {"measurement": "biodistribution stomach", "setting": "[5]; 3 min", "value": 0.93, "unit": "% Injected dose"}, {"measurement": "biodistribution tail", "setting": "[5]; 3 min", "value": 5.19, "unit": "% Injected dose"}, {"measurement": "biodistribution urine", "setting": "[5]; 3 min", "value": 1.98, "unit": "% Injected dose"}, {"measurement": "biodistribution L. Int.", "setting": "[5]; 5 min", "value": 0.54, "unit": "% Injected dose"}, {"measurement": "biodistribution S. Int.", "setting": "[5]; 5 min", "value": 1.08, "unit": "% Injected dose"}, {"measurement": "biodistribution blood", "setting": "[5]; 5 min", "value": 4.05, "unit": "% Injected dose"}, {"measurement": "biodistribution bone", "setting": "[5]; 5 min", "value": 2.74, "unit": "% Injected dose"}, {"measurement": "biodistribution brain", "setting": "[5]; 5 min", "value": 0.23, "unit": "% Injected dose"}, {"measurement": "biodistribution heart", "setting": "[5]; 5 min", "value": 0.19, "unit": "% Injected dose"}, {"measurement": "biodistribution kidney", "setting": "[5]; 5 min", "value": 4.99, "unit": "% Injected dose"}, {"measurement": "biodistribution liver", "setting": "[5]; 5 min", "value": 9.04, "unit": "% Injected dose"}, {"measurement": "biodistribution lung", "setting": "[5]; 5 min", "value": 1.10, "unit": "% Injected dose"}, {"measurement": "biodistribution muscle", "setting": "[5]; 5 min", "value": 11.95, "unit": "% Injected dose"}, {"measurement": "biodistribution pancreas", "setting": "[5]; 5 min", "value": 0.12, "unit": "% Injected dose"}, {"measurement": "biodistribution skin", "setting": "[5]; 5 min", "value": 16.23, "unit": "% Injected dose"}, {"measurement": "biodistribution spleen", "setting": "[5]; 5 min", "value": 0.16, "unit": "% Injected dose"}, {"measurement": "biodistribution stomach", "setting": "[5]; 5 min", "value": 0.87, "unit": "% Injected dose"}, {"measurement": "biodistribution tail", "setting": "[5]; 5 min", "value": 5.36, "unit": "% Injected dose"}, {"measurement": "biodistribution urine", "setting": "[5]; 5 min", "value": 3.72, "unit": "% Injected dose"}, {"measurement": "biodistribution L. Int.", "setting": "[5]; 10 min", "value": 0.79, "unit": "% Injected dose"}, {"measurement": "biodistribution S. Int.", "setting": "[5]; 10 min", "value": 0.90, "unit": "% Injected dose"}, {"measurement": "biodistribution blood", "setting": "[5]; 10 min", "value": 2.33, "unit": "% Injected dose"}, {"measurement": "biodistribution brain", "setting": "[5]; 10 min", "value": 0.19, "unit": "% Injected dose"}, {"measurement": "biodistribution heart", "setting": "[5]; 10 min", "value": 0.18, "unit": "% Injected dose"}, {"measurement": "biodistribution kidney", "setting": "[5]; 10 min", "value": 4.48, "unit": "% Injected dose"}, {"measurement": "biodistribution liver", "setting": "[5]; 10 min", "value": 11.79, "unit": "% Injected dose"}, {"measurement": "biodistribution lung", "setting": "[5]; 10 min", "value": 1.20, "unit": "% Injected dose"}, {"measurement": "biodistribution muscle", "setting": "[5]; 10 min", "value": 8.38, "unit": "% Injected dose"}, {"measurement": "biodistribution pancreas", "setting": "[5]; 10 min", "value": 0.34, "unit": "% Injected dose"}, {"measurement": "biodistribution skin", "setting": "[5]; 10 min", "value": 16.46, "unit": "% Injected dose"}, {"measurement": "biodistribution spleen", "setting": "[5]; 10 min", "value": 0.16, "unit": "% Injected dose"}, {"measurement": "biodistribution stomach", "setting": "[5]; 10 min", "value": 0.80, "unit": "% Injected dose"}, {"measurement": "biodistribution tail", "setting": "[5]; 10 min", "value": 3.45, "unit": "% Injected dose"}, {"measurement": "biodistribution urine", "setting": "[5]; 10 min", "value": 4.71, "unit": "% Injected dose"}, {"measurement": "biodistribution L. Int.", "setting": "[5]; 30 min", "value": 0.31, "unit": "% Injected dose"}, {"measurement": "biodistribution S. Int.", "setting": "[5]; 30 min", "value": 0.71, "unit": "% Injected dose"}, {"measurement": "biodistribution blood", "setting": "[5]; 30 min", "value": 2.12, "unit": "% Injected dose"}, {"measurement": "biodistribution bone", "setting": "[5]; 30 min", "value": 2.05, "unit": "% Injected dose"}, {"measurement": "biodistribution brain", "setting": "[5]; 30 min", "value": 0.54, "unit": "% Injected dose"}, {"measurement": "biodistribution heart", "setting": "[5]; 30 min", "value": 0.20, "unit": "% Injected dose"}, {"measurement": "biodistribution kidney", "setting": "[5]; 30 min", "value": 3.38, "unit": "% Injected dose"}, {"measurement": "biodistribution liver", "setting": "[5]; 30 min", "value": 17.10, "unit": "% Injected dose"}, {"measurement": "biodistribution lung", "setting": "[5]; 30 min", "value": 1.29, "unit": "% Injected dose"}, {"measurement": "biodistribution muscle", "setting": "[5]; 30 min", "value": 7.45, "unit": "% Injected dose"}, {"measurement": "biodistribution pancreas", "setting": "[5]; 30 min", "value": 0.34, "unit": "% Injected dose"}, {"measurement": "biodistribution skin", "setting": "[5]; 30 min", "value": 14.14, "unit": "% Injected dose"}, {"measurement": "biodistribution spleen", "setting": "[5]; 30 min", "value": 0.19, "unit": "% Injected dose"}, {"measurement": "biodistribution stomach", "setting": "[5]; 30 min", "value": 1.22, "unit": "% Injected dose"}, {"measurement": "biodistribution tail", "setting": "[5]; 30 min", "value": 1.51, "unit": "% Injected dose"}, {"measurement": "biodistribution urine", "setting": "[5]; 30 min", "value": 1.33, "unit": "% Injected dose"}, {"measurement": "clearance from the kidneys, blood and urine", "setting": "[5]; [6]", "value": "clears from the kidneys, blood and urine over the 30 minute period"}, {"measurement": "uptake in the liver", "setting": "[5]; [6]", "value": "active uptake of the complex in the liver"}]}]}
